How the values were obtained:
Assay type in all cases: cell-based, human
[1] = tested on: Circulating Tumour Cells (CTCs) from a patient with colon cancer; test: Drug response score assay on CTCs from blood, Example 2
Description: (§1) CD45^+ cells and circulating tumour cells (CTCs) were isolated from a blood sample provided by each subject.
(§2) CD45 separation was performed by adding human CD45 microbeads (50 μl/ml blood), incubating for 15 minutes at 4° C. and then processing using an AutoMACS machine. This separates the blood sample into CD45^+ and CD45^−cells in 2 separate falcons. The falcon tubes are then centrifuged at 1200 rpm for 5 minutes.
(§3) The supernatant was removed from the CD45^−falcon tube, and the CD45^−cells contacted with 100 μl of FcR block and 100 μl of CD326 (EpCAM) MicroBeads, followed by incubation at […] 4° C. for 30 minutes. The CD45^−cells were then processed using an AutoMACS machine to separate the EpCAM positive and negative cells into 2 separate falcon tubes. The EpCAM-cells were discarded. The supernatant was removed from the EpCAM^+ cells, and the cells resuspended in DMEM with 2 μl Cell Tox, 2 μl MT and 2 μl MT. 20 μl of the resuspended pellet was then added to all sample wells excluding a blank. After all wells are added to, a cell count was conducted on the […] to determine the number of circulating tumour cells (CTCs).
(§4) The different cell types were each divided equally into populations, depending on the number of drugs/concentrations to be tested and plated on a cell-culture plate pre-coated with a scaffold of polycaprolactone (PCL) electrospun fibres and incubated at 37° C., 5% CO2, for 5 to (typically 10) minutes to facilitate cell attachment. After attachment, an initial imaging step was carried out using the RealTime-Glo™ MT assay from Promega (Catalogue No. G9711)) and the CellTox™ Green Cytotoxicity Assay (Promega, Catalogue No. G8741), carried out according to manufacturer's instructions. Following this initial imagining, the immunotherapeutic and/or chemotherapeutic agents were added to the cell populations as indicated below. After 10 minutes, the imagining step was repeated. The cell populations were then incubated at 37° C., 5% CO2 for 48 hours. The imaging step was then repeated. The cell populations were then re-dosed with the same immunotherapeutic and/or chemotherapeutic agents as indicated below, and incubated at 37° C., 5% CO2 for a further 48 hours. After this second 48 hour incubation, the imagining step was repeated for a final time.
(§5) At the end of this culture period, dose response scores were calculated using a normalized drug response metric as described in Gupta et al. (Communications Biology volume 3, Article number: 42 (2020), https://doi.org/10.1038/s42003-020-0765-z). The start readout for a given immunotherapeutic or chemotherapeutic agent at a given concentration was the to readout for said immunotherapeutic or chemotherapeutic agent at a specified concentration. The end readout for a given immunotherapeutic or chemotherapeutic agent at a given concentration was the final timepoint reading (t96h) for said immunotherapeutic or chemotherapeutic agent at a specified concentration.
(§6) The positive control start readout for a given drug/concentration was the to readout for the corresponding drug at a specified concentration. The positive control end readout for the corresponding drug at a specified concentration was the final timepoint reading (t96h) for the corresponding blank well.
(§7) The negative control start and end readouts for a given immunotherapeutic or chemotherapeutic agent at a given concentration were the to and final timepoint reading (t96h) respectively for blank cell or blank immuno cell well respectively.
(§8) The sensitivity or resistance of a subject's cancer to a given immunotherapeutic or chemotherapeutic agent was determined based on the calculated drug response score as shown in Table 2.
Blood samples from a patient with colon cancer were received on 3 Mar. 2022 and tested using a 1 drug panel.

[2] = tested on: Circulating Tumour Cells (CTCs, EpCam+CD45−) from a patient with stage II synovial sarcoma; test: Drug response score assay (RealTime-Glo MT / CellTox Green, PCL scaffold) on CTCs from blood, Example 1; parameters: key to Drug response score, conc. 1 / Drug response score, conc. 2 / Drug response score, conc. 3 / Drug response score, conc. 4: normalized drug response metric per Gupta et al. 2020
Description: as §1, §2, §3, §4, §5, §6, §7, §8
Blood samples from a patient with stage II synovial sarcoma (suspected spindle cell tumour) were received and tested using a 6 drug panel.
Chemotherapeutic agents were tested as in Table 3.

[3] = tested on: Circulating Tumour Cells (CTCs) from a patient with lung cancer (adenocarcinoma); test: Drug response score assay on CTCs (with CD45+ cells for immunotherapy) from blood, Example 5; details: lung cancer CTCs
Description: as §1, §2
(§9) The supernatant was removed from the CD45^+falcon tube, and the cells resuspended in DMEM with 2 μl Cell Tox, 2 μl MT and 2 μl MT. 20 μl of the resuspended CD45^+ cells was then plated in each well which will contain an immunotherapy treatment.
as §3, §4, §5, §6, §7
(§10) The sensitivity or resistance of a subject's cancer to a given immunotherapeutic or chemotherapeutic agent was determined based on the calculated drug response score as shown in Table 2. […]

[4] = tested on: Circulating Tumour Cells (CTCs) from a patient with head and neck cancer (squamous cell carcinoma); test: Drug response score assay on CTCs from blood, Example 6
Description: as §1, §2, §3, §4, §5, §6, §7, §8
Blood samples from a patient with head and neck cancer (squamous cell carcinoma) were received on 11 Mar. 2022 and tested using a 7 drug panel.

[5] = tested on: Circulating Tumour Cells (CTCs) from a patient with renal cancer; test: Drug response score assay on CTCs (with CD45+ cells for immunotherapy) from blood, Example 7; parameters: key to Drug response score, conc. 1 / Drug response score, conc. 2 / Drug response score, conc. 3 / Drug response score, conc. 4: normalized drug response metric per Gupta et al. 2020
Description: as §1, §2, §9, §3, §4, §5, §6, §7, §10

Question: For N.N.[Cl][Pt][Cl] [Cisplatin], which “Drug response score, conc. 1” value ([1]; Cisplatin 2 μg/ml, CTCs, t96h) is on record?
Answer: Its value is 2.719.

Question: And the “Drug response score, conc. 2” value ([1]; Cisplatin 4 μg/ml, CTCs, t96h)?
Answer: The value was 2.874.

Question: And the “Drug response score, conc. 3” value ([1]; Cisplatin 10 μg/ml, CTCs, t96h)?
Answer: Its value is 3.012.

Question: What about the “Drug response score, conc. 4” value ([1]; Cisplatin 20 μg/ml, CTCs, t96h) of the same compound?
Answer: Its value is 3.259.

Question: And the “effectiveness on Circulating Tumour Cells under laboratory conditions” value ([1]; colon cancer CTCs)?
Answer: Its value is “not effective”.

Question: What about the “Drug sensitivity as calculated by the assay (interpretation of Drug Response Scores)” value (from here on “Drug sensitivity as calculated”) ([1]; colon cancer CTCs, Table 8) of the same compound?
Answer: Its value is “Resistant”.

Question: How did the “Drug response score, conc. 1” value ([2]; conc. 1: Doxo 10 ng/ml, Ifos 0.125 μg/ml, Gemcit 2 μg/ml, Doce 0.02 μg/ml, Carbo 2 μg/ml, Dacarb 1.5 μg/ml, CTCs, t96h, re-dosed at 48 h) turn out when Nc1ccn([C@@H]2O[C@H](CO)[C@@H](O)C2(F)F)c(=O)n1 [Gemcitabine] was run?
Answer: The value was 0.9382.

Question: What about the “Drug response score, conc. 2” value ([2]; conc. 2: Doxo 30 ng/ml, Ifos 0.25 μg/ml, Gemcit 10 μg/ml, Doce 0.2 μg/ml, Carbo 5 μg/ml, Dacarb 3 μg/ml, CTCs, t96h) of the same compound?
Answer: Its value is 0.4695.

Question: What about the “Drug response score, conc. 3” value ([2]; conc. 3: Doxo 90 ng/ml, Ifos 5 μg/ml, Gemcit 20 μg/ml, Doce 2 μg/ml, Carbo 10 μg/ml, Dacarb 6 μg/ml, CTCs, t96h) of the same compound?
Answer: The value was 0.5149.

Question: What about the “Drug response score, conc. 4” value ([2]; conc. 4: Doxo 270 ng/ml, Ifos 10 μg/ml, Gemcit 40 μg/ml, Doce 10 μg/ml, Carbo 20 μg/ml, Dacarb 12 μg/ml, CTCs, t96h) of the same compound?
Answer: The value was 0.4075.

Question: And the “Drug sensitivity as calculated” value ([2]; synovial sarcoma CTCs, Table 5)?
Answer: The value was “Sensitive (S+)”.

Question: What about the “effectiveness on Circulating Tumour Cells (CTCs) under laboratory conditions” value [3] of the same compound?
Answer: Its value is “marginally more effective than other agents”.

Question: And the “Drug sensitivity as calculated” value ([3]; Table 17)?
Answer: Its value is “S++”.

Question: What about the “Drug response score, conc. 1” value ([4]; conc. 1: Ifos 0.125 μg/ml, Gemcit 2 μg/ml, Doxo 10 ng/ml, Etop 1 μg/ml, Metho 0.5 μg/ml, Capecit 200 μg/ml, Vinor 20 μg/ml, CTCs, t96h) of the same compound?
Answer: Its value is 0.9091.

Question: What about the “Drug response score, conc. 2” value ([4]; conc. 2: Ifos 0.25 μg/ml, Gemcit 10 μg/ml, Doxo 30 ng/ml, Etop 4 μg/ml, Metho 1 μg/ml, Capecit 300 μg/ml, Vinor 40 μg/ml, CTCs, t96h) of the same compound?
Answer: The value was 0.8443.

Question: And the “Drug response score, conc. 3” value ([4]; conc. 3: Ifos 5 μg/ml, Gemcit 20 μg/ml, Doxo 90 ng/ml, Etop 20 μg/ml, Metho 2 μg/ml, Capecit 400 μg/ml, Vinor 80 μg/ml, CTCs, t96h)?
Answer: The value was 0.6925.

Question: And the “Drug response score, conc. 4” value ([4]; conc. 4: Ifos 10 μg/ml, Gemcit 40 μg/ml, Doxo 270 ng/ml, Etop 100 μg/ml, Metho 4 μg/ml, Capecit 600 μg/ml, Vinor 200 μg/ml, CTCs, t96h)?
Answer: Its value is 0.3157.

Question: And the “effectiveness on Circulating Tumour Cells under laboratory conditions” value ([4]; head and neck cancer CTCs)?
Answer: Its value is “Sensitive S+”.

Question: And the “Drug sensitivity as calculated” value ([4]; head and neck cancer CTCs, Table 20)?
Answer: The value was “Sensitive (S+)”.

Question: And the “Drug response score, conc. 1” value ([5]; conc. 1: Pembr 20 μg/ml (CTCs + CD45+ cells), Docetax 0.02 μg/ml, Gemcit 2 μg/ml, Topo 5 μg/ml, Etop 1 μg/ml, Eribul 5 μg/ml (CTCs), t96h)?
Answer: Its value is −0.1637.

Question: What about the “Drug response score, conc. 2” value ([5]; conc. 2: Pembr 40 μg/ml (CTCs + CD45+ cells), Docetax 0.2 μg/ml, Gemcit 10 μg/ml, Topo 10 μg/ml, Etop 4 μg/ml, Eribul 10 μg/ml (CTCs), t96h) of the same compound?
Answer: The value was 0.0725.

Question: What about the “Drug response score, conc. 3” value ([5]; conc. 3: Pembr 100 μg/ml (CTCs + CD45+ cells), Docetax 2 μg/ml, Gemcit 20 μg/ml, Topo 50 μg/ml, Etop 20 μg/ml, Eribul 20 μg/ml (CTCs), t96h) of the same compound?
Answer: Its value is −0.3154.

Question: What about the “Drug response score, conc. 4” value ([5]; conc. 4: Pembr 160 μg/ml (CTCs + CD45+ cells), Docetax 10 μg/ml, Gemcit 40 μg/ml, Topo 100 μg/ml, Etop 100 μg/ml, Eribul 40 μg/ml (CTCs), t96h) of the same compound?
Answer: The value was −0.0871.

Question: And the “effectiveness on Circulating Tumour Cells under laboratory conditions” value ([5]; renal cancer CTCs)?
Answer: Its value is “Sensitive S++”.

Question: What about the “Drug sensitivity as calculated” value ([5]; renal cancer CTCs, Table 23) of the same compound?
Answer: The value was “Sensitive (S++)”.

Reference: patent publication US20250290915A1, “METHOD FOR PREDICTING RESPONSIVENESS TO THERAPY” (CANCERTAIN LIMITED, priority 2022, published 2025)
